According to PubChem BioAssay AID330 (DTP/NCI, 2004):
“And” between values parts separate entries of the source, which are not always exact repeats. Equal values may be shown once. Inconclusive results and toxic doses are left out.

System: P388 leukemia ip, CD2F1 mice, survival T/C
Assay: NCI In Vivo Anticancer Drug Screen. Data for tumor model P388 Leukemia (intraperitoneal) in CD2F1 (CDF1) mice
Conditions: endpoint: median survival time, higher = longer survival
Method in brief: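 Mice carrying the transplanted tumor received test compound or vehicle. Survival was recorded in each group, and the value is the treated-group measurement divided by that of the vehicle-treated control group.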

[1] = dose: 60.0 mg/kg/injection, schedule: Q01DX005 (ip), vehicle: Klucel (hydroxypropylcellulose) (HPC)
[2] = dose: 120.0 mg/kg/injection, schedule: Q01DX005 (ip), vehicle: Klucel (hydroxypropylcellulose) (HPC)
[3] = dose: 240.0 mg/kg/injection, schedule: Q01DX005 (ip), vehicle: Klucel (hydroxypropylcellulose) (HPC)
[4] = dose: 12.5 mg/kg/injection, schedule: Q01DX009 (ip), vehicle: saline
[5] = dose: 12.5 mg/kg/injection, schedule: Q01DX009 (ip), vehicle: saline with Tween-80
[6] = dose: 60.0 mg/kg/injection, schedule: Q01DX005 (ip), vehicle: saline with Tween-80
[7] = dose: 120.0 mg/kg/injection, schedule: Q01DX005 (ip), vehicle: saline with Tween-80
[8] = dose: 25.0 mg/kg/injection, schedule: Q01DX009 (ip), vehicle: water
[9] = dose: 50.0 mg/kg/injection, schedule: Q01DX009 (ip), vehicle: water
[10] = dose: 100.0 mg/kg/injection, schedule: Q01DX009 (ip), vehicle: water
[11] = dose: 50.0 mg/kg/injection, schedule: Q01DX009 (ip), vehicle: saline with Tween-80
[12] = dose: 50.0 mg/kg/injection, schedule: Q01DX009 (ip), vehicle: saline
[13] = dose: 100.0 mg/kg/injection, schedule: Q01DX009 (ip), vehicle: saline
[14] = dose: 200.0 mg/kg/injection, schedule: Q01DX009 (ip), vehicle: saline

SMILES: O=S(=O)(O)Cc1ccc(CS(=O)(=O)O)cc1
- T/C (dose: 12.5 mg/kg/injection, schedule: Q04DX002 (ip), vehicle: saline): 93 % of control
- T/C (dose: 25.0 mg/kg/injection, schedule: Q04DX002 (ip), vehicle: saline): 102 % of control
- T/C (dose: 50.0 mg/kg/injection, schedule: Q04DX002 (ip), vehicle: saline): 98 % of control

SMILES: COc1ccc2c(c1)CCC(c1nc3ccc(Cl)cc3[nH]c1=O)=C2O
- T/C [1]: 101 % of control
- T/C [2]: 92 % of control
- T/C [3]: 91 % of control

SMILES: C1C[N-]CC[N-]CC[N-]CC[N-]1.[Cl][Rh][Cl]
- T/C (dose: 0.66 mg/kg/injection, schedule: Q01DX009 (ip), vehicle: saline): 117 % of control
- T/C (dose: 1.0 mg/kg/injection, schedule: Q01DX009 (ip), vehicle: saline): 115 % of control
- T/C (dose: 1.5 mg/kg/injection, schedule: Q01DX009 (ip), vehicle: saline): 115 % of control
- T/C (dose: 2.25 mg/kg/injection, schedule: Q01DX009 (ip), vehicle: saline): 108 % of control
- T/C (dose: 3.13 mg/kg/injection, schedule: Q01DX009 (ip), vehicle: saline): 121 % of control
- T/C (dose: 6.25 mg/kg/injection, schedule: Q01DX009 (ip), vehicle: saline): 116 % of control
- T/C [4]: 108 % of control

SMILES: O=P(N1CC1)(N1CC1)N1CC2CCC(CC2)C1
- T/C (dose: 3.13 mg/kg/injection, schedule: Q01DX009 (ip), vehicle: saline with Tween-80): 109 % of control
- T/C (dose: 6.25 mg/kg/injection, schedule: Q01DX009 (ip), vehicle: saline with Tween-80): 154 % of control
- T/C [5]: 204 % of control
- T/C [4]: 159 % of control
- T/C (dose: 12.5 mg/kg/injection, schedule: Q04DX003 (ip), vehicle: saline): 120 % of control
- T/C (dose: 25.0 mg/kg/injection, schedule: Q01DX009 (ip), vehicle: saline): 118 % of control
- T/C (dose: 25.0 mg/kg/injection, schedule: Q04DX003 (ip), vehicle: saline): 166 % of control
- T/C (dose: 50.0 mg/kg/injection, schedule: Q04DX003 (ip), vehicle: saline): 154 % of control

SMILES: CCCCCCCCC#CCO
- T/C [6]: 86 % of control
- T/C [7]: 86 % of control

SMILES: Cc1ccc(C)[nH][nH]c(N)n1
- T/C [8]: 99 % of control
- T/C [9]: 101 % of control
- T/C [10]: 101 % of control

SMILES: Cc1c(C#N)c(=O)[nH]c2ccc([N+](=O)[O-])cc12
- T/C [6]: 94 % of control
- T/C [7]: 93 % of control
- T/C (dose: 240.0 mg/kg/injection, schedule: Q01DX005 (ip), vehicle: saline with Tween-80): 100 % of control

SMILES: CN(C)c1ccc2ccc(N(C)C)nc2c1
- T/C [5]: 93 % of control
- T/C (dose: 25.0 mg/kg/injection, schedule: Q01DX009 (ip), vehicle: saline with Tween-80): 117 % of control
- T/C [11]: 89 % of control and 95 % of control

SMILES: CCO/C=N/c1c(C#N)cnn1C
- T/C (dose: 50.0 mg/kg/injection, schedule: Q01DX009 (ip), vehicle: Klucel (hydroxypropylcellulose) (HPC)): 100 % of control
- T/C (dose: 100.0 mg/kg/injection, schedule: Q01DX009 (ip), vehicle: Klucel (hydroxypropylcellulose) (HPC)): 98 % of control
- T/C (dose: 200.0 mg/kg/injection, schedule: Q01DX009 (ip), vehicle: Klucel (hydroxypropylcellulose) (HPC)): 106 % of control
- T/C (dose: 400.0 mg/kg/injection, schedule: Q01DX009 (ip), vehicle: Klucel (hydroxypropylcellulose) (HPC)): 103 % of control

SMILES: c1cc2c(ncn3nnnc23)[nH]1
- T/C (dose: 6.25 mg/kg/injection, schedule: Q01DX009 (ip), vehicle: water): 91 % of control
- T/C (dose: 12.5 mg/kg/injection, schedule: Q01DX009 (ip), vehicle: water): 107 % of control
- T/C [8]: 108 % of control
- T/C [9]: 109 % of control
- T/C [10]: 118 % of control

SMILES: O=C(O)CS(=O)(=O)CCS(=O)(=O)CC(=O)O
- T/C [12]: 107 % of control
- T/C [13]: 105 % of control
- T/C [14]: 88 % of control

SMILES: Nc1ncnc2nc[nH]c12
- T/C (dose: 16.0 mg/kg/injection, schedule: Q01DX009 (ip), vehicle: Klucel (hydroxypropylcellulose) (HPC)): 100 % of control
- T/C (dose: 32.0 mg/kg/injection, schedule: Q01DX009 (ip), vehicle: Klucel (hydroxypropylcellulose) (HPC)): 103 % of control and 108 % of control and 109 % of control
- T/C (dose: 32.0 mg/kg/injection, schedule: Q01DX009 (ip), vehicle: saline with Tween-80): 106 % of control and 118 % of control
- T/C [11]: 99 % of control
- T/C (dose: 64.0 mg/kg/injection, schedule: Q01DX009 (ip), vehicle: Klucel (hydroxypropylcellulose) (HPC)): 106 % of control
- T/C (dose: 64.0 mg/kg/injection, schedule: Q01DX009 (ip), vehicle: saline with Tween-80): 111 % of control and 97 % of control
- T/C (dose: 100.0 mg/kg/injection, schedule: Q01DX009 (ip), vehicle: saline with Tween-80): 114 % of control
- T/C (dose: 128.0 mg/kg/injection, schedule: Q01DX009 (ip), vehicle: Klucel (hydroxypropylcellulose) (HPC)): 110 % of control
- T/C (dose: 128.0 mg/kg/injection, schedule: Q01DX009 (ip), vehicle: saline with Tween-80): 100 % of control and 108 % of control
- T/C (dose: 200.0 mg/kg/injection, schedule: Q01DX009 (ip), vehicle: saline with Tween-80): 110 % of control
- T/C (dose: 256.0 mg/kg/injection, schedule: Q01DX009 (ip), vehicle: Klucel (hydroxypropylcellulose) (HPC)): 88 % of control
- T/C (dose: 256.0 mg/kg/injection, schedule: Q01DX009 (ip), vehicle: saline with Tween-80): 118 % of control

SMILES: CCCCCCSCN(CC)CC
- T/C [12]: 103 % of control
- T/C [13]: 107 % of control
- T/C [14]: 112 % of control

SMILES: CNP(=O)(N(C)C)N(C)C
- T/C [12]: 96 % of control
- T/C [13]: 98 % of control
- T/C [14]: 106 % of control

SMILES: O=C1CN=C(c2ccccc2)N(c2ccccc2)N1
- T/C [1]: 107 % of control
- T/C [2]: 100 % of control
- T/C [3]: 103 % of control

SMILES: CCN(CC)c1ccc(C(=N)c2ccc(N(C)C)cc2)cc1
- T/C (dose: 12.5 mg/kg/injection, schedule: Q01DX005 (ip), vehicle: Klucel (hydroxypropylcellulose) (HPC)): 99 % of control
- T/C (dose: 25.0 mg/kg/injection, schedule: Q01DX005 (ip), vehicle: Klucel (hydroxypropylcellulose) (HPC)): 99 % of control
- T/C (dose: 50.0 mg/kg/injection, schedule: Q01DX005 (ip), vehicle: Klucel (hydroxypropylcellulose) (HPC)): 90 % of control and 92 % of control

SMILES: CN1C(=O)Cn2c(nn(CCN3CCCC3)c(=O)c2=O)-c2cc(Cl)ccc21
- T/C [12]: 103 % of control
- T/C [13]: 105 % of control
- T/C [14]: 103 % of control
